Measurements reported in PubChem BioAssay AID200 (DTP/NCI, 2004).
Several values for one entry are separate records, joined by “and”; a condition that tells them apart may be missing. Equal values may be shown once. Inconclusive results and toxic doses are left out.

Tested on: B6C3F1 mice, B16 melanoma ip, median survival T/C
Test: NCI In Vivo Anticancer Drug Screen. Data for tumor model B16 Melanoma (intraperitoneal) in B6C3F1 mice
Conditions: endpoint: median survival time, schedule: Q01DX009 (ip), higher = longer survival
Summary of the method: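 Antitumor effect was judged in mice with transplanted tumors by dividing the treated group's survival measure by that of vehicle controls.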

[1] = dose: 100.0 mg/kg/injection, vehicle: Klucel (hydroxypropylcellulose) (HPC)
[2] = dose: 200.0 mg/kg/injection, vehicle: Klucel (hydroxypropylcellulose) (HPC)
[3] = dose: 400.0 mg/kg/injection, vehicle: Klucel (hydroxypropylcellulose) (HPC)
[4] = dose: 12.5 mg/kg/injection, vehicle: saline
[5] = dose: 25.0 mg/kg/injection, vehicle: saline
[6] = dose: 50.0 mg/kg/injection, vehicle: saline
[7] = dose: 50.0 mg/kg/injection, vehicle: Klucel (hydroxypropylcellulose) (HPC)
[8] = dose: 100.0 mg/kg/injection, vehicle: saline
[9] = dose: 6.25 mg/kg/injection, vehicle: saline with Tween-80
[10] = dose: 12.5 mg/kg/injection, vehicle: saline with Tween-80
[11] = dose: 25.0 mg/kg/injection, vehicle: saline with Tween-80
[12] = dose: 50.0 mg/kg/injection, vehicle: saline with Tween-80
[13] = dose: 6.25 mg/kg/injection, vehicle: saline
[14] = dose: 200.0 mg/kg/injection, vehicle: saline

**Q.** How did the T/C (dose: 6.25 mg/kg/injection, vehicle: water) turn out when `O=NNc1ncc(Br)cc1Br` was run?
**A.** Its T/C is 108 % of control.

**Q.** What about the T/C (dose: 12.5 mg/kg/injection, vehicle: water) of the same compound?
**A.** The T/C was 114 % of control.

**Q.** And the T/C (dose: 25.0 mg/kg/injection, vehicle: water)?
**A.** The T/C was 110 % of control.

**Q.** What about the T/C (dose: 100.0 mg/kg/injection, vehicle: water) of the same compound?
**A.** Its T/C is 98 % of control.

**Q.** With `Nc1ncn(C2CC(O)C(CO)O2)c(=O)n1` (stereo not drawn) as the compound, how does the T/C (dose: 0.25 mg/kg/injection, vehicle: Klucel (hydroxypropylcellulose) (HPC)) read?
**A.** Its T/C is 86 % of control.

**Q.** And the T/C (dose: 0.25 mg/kg/injection, vehicle: saline)?
**A.** The T/C was 117 % of control.

**Q.** And the T/C (dose: 15.62 micrograms/kg/injection, vehicle: Klucel (hydroxypropylcellulose) (HPC))?
**A.** The T/C was 87 % of control.

**Q.** And the T/C (dose: 31.25 micrograms/kg/injection, vehicle: Klucel (hydroxypropylcellulose) (HPC))?
**A.** Its T/C is 86 % of control.

**Q.** What about the T/C (dose: 125.0 micrograms/kg/injection, vehicle: Klucel (hydroxypropylcellulose) (HPC)) of the same compound?
**A.** Its T/C is 114 % of control.

**Q.** What about the T/C (dose: 250.0 micrograms/kg/injection, vehicle: Klucel (hydroxypropylcellulose) (HPC)) of the same compound?
**A.** Its T/C is 97 % of control.

**Q.** Which results are given for `Cc1nc(C(Cl)(Cl)Cl)[nH]c(=O)c1SCCO`?
**A.** T/C (dose: 25.0 mg/kg/injection, vehicle: distilled water + alcohol): 111 % of control; T/C (dose: 50.0 mg/kg/injection, vehicle: distilled water + alcohol): 107 % of control; T/C (dose: 100.0 mg/kg/injection, vehicle: distilled water + alcohol): 102 % of control; T/C (dose: 200.0 mg/kg/injection, vehicle: distilled water + alcohol): 106 % of control; T/C (dose: 400.0 mg/kg/injection, vehicle: distilled water + alcohol): 119 % of control

**Q.** Which T/C [1] does the source give for `CC(NC(=O)C(CO)NC(=O)CN)C(=O)O` (stereo not drawn) here?
**A.** Its T/C is 98 % of control.

**Q.** What about the T/C [2] of the same compound?
**A.** The T/C was 98 % of control.

**Q.** What about the T/C [3] of the same compound?
**A.** Its T/C is 98 % of control.

**Q.** Which results are given for `CC(OCc1ccccc1)C(NC(=O)OC(C)(C)C)C(=O)O` (stereo not drawn)?
**A.** T/C [1]: 92 % of control; T/C [2]: 100 % of control; T/C [3]: 96 % of control

**Q.** With `COC(=O)[C@@H]1c2cc3c(c(O)c2[C@@H](OC)C[C@@]1(C)O)C(=O)c1c(O)cc2c(c1C3=O)OC1O[C@@]2(C)[C@H](O)[C@@H](N(C)C)[C@@H]1O` as the compound, how does the T/C [4] read?
**A.** The T/C was 158 % of control.

**Q.** And the T/C [5]?
**A.** Its T/C is 159 % of control.

**Q.** And the T/C [6]?
**A.** The T/C was 158 % of control.

**Q.** Which T/C [7] does the source give for `O=C1CNC(=O)N1CN1CCOCC1` here?
**A.** Its T/C is 94 % of control.

**Q.** And the T/C [1]?
**A.** The T/C was 94 % of control.

**Q.** And the T/C [2]?
**A.** Its T/C is 115 % of control.

**Q.** And the T/C [3]?
**A.** Its T/C is 101 % of control.

**Q.** What does the source list for `CC(C)C(NC(=O)C(F)(F)F)C(=O)O` (stereo not drawn)?
**A.** T/C [6]: 96 % of control; T/C [8]: 89 % of control

**Q.** Which T/C (dose: 3.13 mg/kg/injection, vehicle: saline with Tween-80) does the source give for `Clc1ccccc1N1CCN(CCCN2CCN(c3ccccc3Cl)CC2)CC1` here?
**A.** Its T/C is 100 % of control.

**Q.** What about the T/C [9] of the same compound?
**A.** Its T/C is 95 % of control.

**Q.** What about the T/C [10] of the same compound?
**A.** Its T/C is 94 % of control.

**Q.** What about the T/C [11] of the same compound?
**A.** The T/C was 99 % of control.

**Q.** How did the T/C (dose: 1.0 mg/kg/injection, vehicle: saline with Tween-80) turn out when `Cc1c2ccccc2c(C)c2c1ccc1ccccc12` was run?
**A.** The T/C was 99 % of control.

**Q.** What about the T/C (dose: 2.0 mg/kg/injection, vehicle: saline with Tween-80) of the same compound?
**A.** The T/C was 106 % of control.

**Q.** What about the T/C (dose: 4.0 mg/kg/injection, vehicle: saline with Tween-80) of the same compound?
**A.** Its T/C is 122 % of control.

**Q.** And the T/C (dose: 8.0 mg/kg/injection, vehicle: saline with Tween-80)?
**A.** Its T/C is 113 % of control.

**Q.** What about the T/C (dose: 16.0 mg/kg/injection, vehicle: saline with Tween-80) of the same compound?
**A.** Its T/C is 86 % of control.

**Q.** How did the T/C [10] turn out when `NC(=O)/C=C/C(N)=O` was run?
**A.** Its T/C is 113 % of control.

**Q.** And the T/C [11]?
**A.** The T/C was 109 % of control.

**Q.** And the T/C [12]?
**A.** The T/C was 89 % of control.

**Q.** How did the T/C [10] turn out when `COc1ccc2c(c1)n([O-])c1ccccc1[n+]2=O` was run?
**A.** The T/C was 103 % of control.

**Q.** And the T/C (dose: 18.0 mg/kg/injection, vehicle: saline with Tween-80)?
**A.** Its T/C is 121 % of control.

**Q.** And the T/C [11]?
**A.** The T/C was 108 % of control.

**Q.** And the T/C (dose: 30.0 mg/kg/injection, vehicle: saline with Tween-80)?
**A.** The T/C was 101 % of control and 103 % of control.

**Q.** What about the T/C [12] of the same compound?
**A.** Its T/C is 113 % of control and 114 % of control.

**Q.** And the T/C (dose: 83.33 mg/kg/injection, vehicle: saline with Tween-80)?
**A.** The T/C was 108 % of control and 115 % of control.

**Q.** `Cc1ccc(N=Nc2c(O)ccc3n[nH]nc23)cc1` was tested. Which T/C (dose: 25.0 mg/kg/injection, vehicle: Klucel (hydroxypropylcellulose) (HPC)) did it give?
**A.** The T/C was 94 % of control.

**Q.** And the T/C [7]?
**A.** Its T/C is 96 % of control.

**Q.** What about the T/C [1] of the same compound?
**A.** The T/C was 114 % of control.

**Q.** For `O=C(Nc1ccc(Cl)c(Cl)c1)Nc1c(Oc2ccc(Cl)c(Cl)c2)ccc(Cl)c1S(=O)(=O)O`, which T/C [9] is on record?
**A.** The T/C was 99 % of control.

**Q.** What about the T/C [10] of the same compound?
**A.** The T/C was 101 % of control.

**Q.** What about the T/C [11] of the same compound?
**A.** The T/C was 97 % of control.

**Q.** And the T/C [12]?
**A.** Its T/C is 99 % of control.

**Q.** What about the T/C (dose: 100.0 mg/kg/injection, vehicle: saline with Tween-80) of the same compound?
**A.** Its T/C is 97 % of control.

**Q.** What about the T/C (dose: 200.0 mg/kg/injection, vehicle: saline with Tween-80) of the same compound?
**A.** The T/C was 99 % of control.

**Q.** With `CC(C)(C)OC(=O)NC(CCCCNC(=O)C(F)(F)F)C(=O)ON1C(=O)CCC1=O` (stereo not drawn) as the compound, how does the T/C [10] read?
**A.** The T/C was 91 % of control.

**Q.** And the T/C [11]?
**A.** Its T/C is 94 % of control.

**Q.** What about the T/C [12] of the same compound?
**A.** The T/C was 96 % of control and 102 % of control.

**Q.** Which results are given for `O=C(O)[C@H](Cc1ccccc1)N1C(=O)c2ccccc2C1=O`?
**A.** T/C (dose: 50.0 mg/kg/injection, vehicle: DMSO): 96 % of control; T/C (dose: 100.0 mg/kg/injection, vehicle: DMSO): 99 % of control; T/C (dose: 200.0 mg/kg/injection, vehicle: DMSO): 99 % of control; T/C (dose: 800.0 mg/kg/injection, vehicle: DMSO): 88 % of control

**Q.** Which results are given for `CC(C)(C)OC(=O)NC(Cc1c[nH]c2ccccc12)C(=O)ON1C(=O)CCC1=O` (stereo not drawn)?
**A.** T/C [10]: 89 % of control; T/C [11]: 100 % of control; T/C [12]: 88 % of control

**Q.** With `N=c1ccn2c(n1)OC1C(O)C(CO)OC12` (stereo not drawn) as the compound, how does the T/C (dose: 18.75 mg/kg/injection, vehicle: saline) read?
**A.** The T/C was 100 % of control.

**Q.** What about the T/C (dose: 37.5 mg/kg/injection, vehicle: saline) of the same compound?
**A.** The T/C was 118 % of control and 104 % of control.

**Q.** And the T/C (dose: 75.0 mg/kg/injection, vehicle: saline)?
**A.** Its T/C is 100 % of control and 106 % of control (2×).

**Q.** What about the T/C (dose: 150.0 mg/kg/injection, vehicle: saline) of the same compound?
**A.** The T/C was 114 % of control and 106 % of control (2×).

**Q.** And the T/C (dose: 300.0 mg/kg/injection, vehicle: saline)?
**A.** Its T/C is 112 % of control and 121 % of control and 106 % of control.

**Q.** Which results are given for `CSC(SC)=C1C(=O)NC(=O)NC1=O`?
**A.** T/C (dose: 3.12 mg/kg/injection, vehicle: saline): 111 % of control; T/C [13]: 101 % of control; T/C [4]: 90 % of control; T/C [5]: 96 % of control

**Q.** `C=C(NC(=O)C(=C)NC(=O)c1csc(C2=NC3c4csc(n4)C4NC(=O)c5csc(n5)C(C(C)(O)C(C)O)NC(=O)C5CSC(=N5)/C(=C/C)NC(=O)C(C(C)O)NC(=O)c5csc(n5)C3(CC2)NC(=O)C(C)NC(=O)C(=C)NC(=O)C(=C)NC(=O)C(C(C)C)NC2C=Cc3c(C(C)O)cc(nc3C2O)C(=O)OC4C)n1)C(N)=O` (stereo not drawn) was tested. Which T/C [5] did it give?
**A.** Its T/C is 121 % of control.

**Q.** And the T/C [6]?
**A.** Its T/C is 109 % of control.

**Q.** What about the T/C [14] of the same compound?
**A.** The T/C was 121 % of control.

**Q.** `CN(C)c1nc(N(C)C)nc(N(C)C)n1` was tested. Which T/C [10] did it give?
**A.** The T/C was 88 % of control.

**Q.** `CN(C)CCc1ccc(O)cc1` was tested. Which T/C [8] did it give?
**A.** Its T/C is 89 % of control.

**Q.** And the T/C [14]?
**A.** The T/C was 92 % of control.

**Q.** Which results are given for `Nc1nc(SCc2ccccc2)c2ncn(C3OC(CO)CC3O)c2n1` (stereo not drawn)?
**A.** T/C [7]: 116 % of control; T/C [1]: 107 % of control

**Q.** Which results are given for `O=C(O)CC1C(=O)OC2C3COC(=O)c4cc(O)c(O)c(O)c4-c4c(cc(O)c(O)c4O)C(=O)OC2C(OC(=O)c2cc(O)c(O)c4c2C1C(O)C(=O)O4)C(OC(=O)c1cc(O)c(O)c(O)c1)O3` (stereo not drawn)?
**A.** T/C [13]: 94 % of control; T/C [4]: 99 % of control; T/C [5]: 100 % of control; T/C [6]: 88 % of control
